What was measured:
[1] = test system: mildew of wheat (Blumeria graminis forma specialis tritici); assay: Action against mildew of wheat (protective spray, wheat seedlings cv. Kanzler); format: in vivo; conditions: individual active ingredient, 7 days after inoculation
Protocol: (§1) The active compounds, separately or together, are formulated as a 10% emulsion in a mixture of 70% by weight of cyclohexanone, 20% by weight of Nekanil® LN (Lutensol® AP6, wetting agent having emulsifying and dispersing action based on ethoxylated alkylphenols) and 10% by weight of Emulphor® EL (Emulan® EL, emulsifier based on ethoxylated fatty alcohols) and diluted with water to the desired concentration.
(§2) Evaluation is carried out by determining the infected leaf areas in percent. These percentages are converted into efficacies. The efficacy (W) is calculated as follows using Abbot's formula: […]
α corresponds to the fungal infection of the treated plants in % and β corresponds to the fungal infection of the untreated (control) plants in % An efficacy of 0 means that the infection level of the treated plants corresponds to that of the untreated control plants; an efficacy of 100 means that the treated plants were not infected.
The expected efficacies of the mixtures of the active compounds were determined using Colby's formula [R. S. Colby, Weeds 15, 20-22 (1967)] and compared with the observed efficacies.
Colby's formula: E×x+y−x·y/100
E expected efficacy, expressed in % of the untreated control, when using the mixture of the active compounds A and B at the concentrations a and b x efficacy, expressed in % of the untreated control, when using active compound A at the concentration a y efficacy, expressed in % of the untreated control, when using active compound B at the concentration b.
Leaves of wheat seedlings of the cultivar “Kanzler”, grown in pots, were sprayed to run-off point with an aqueous formulation of active ingredient which had been prepared using a stock solution comprising 10% of active ingredient, 85% of cyclohexanone and 5% of emulsifier, and 24 hours after the spray coating had dried on, the leaves were dusted with spores of mildew of wheat (Blumeria graminis forma specialis tritici). […] After 7 days, the extent of the development of the mildew was determined visually in % infection of the entire leaf surface. […]

[2] = test system: mildew of cucumber (Sphaerotheca fuliginea); assay: Action against mildew of cucumber (protective spray, cucumber seedlings cv. Chinesische Schlange); format: in vivo; conditions: individual active ingredient, 7 days
Protocol: as §1, §2
The expected efficacies of the mixtures of the active compounds were determined using Colby's formula [R. S. Colby, Weeds 15, 20-22 (1967)] and compared with the observed efficacies. […]
Leaves of cucumber seedlings of the cultivar “Chinesische Schlange” which had been grown in pots were, at the cotyledon stage, sprayed to run-off point with an aqueous preparation of active ingredient which had been prepared using a stock solution made of 10% active ingredient, 85% of cyclohexanone and 5% of emulsifier. […] The extent of the mildew development was then determined visually in % infection of the cotyledon surface. […]

With dinocap [dinocap (II)] the “Efficacy in % of the untreated control” value ([1]; 6 ppm in the spray liquor) was 10%, the “Efficacy in % of the untreated control” value ([1]; 12.5 ppm in the spray liquor) was 10% and the “Efficacy in % of the untreated control” value ([1]; 50 ppm in the spray liquor) was 70%. For the same substance, the “Efficacy in % of the untreated control” value ([2]; 6 ppm in the spray liquor) was 10% and the “Efficacy in % of the untreated control” value ([2]; 12.5 ppm in the spray liquor) was 20%.

From patent US6515000B2, “Fungicidal mixtures based on amide compounds” (BASF Aktiengesellschaft, priority 2000, dated 2003)
